Test results taken from patent EP4707280A1, “1,4-CINEOLE DERIVATIVE AND INTERMEDIATE THEREOF, HERBICIDE CONTAINING SAID DERIVATIVE AS ACTIVE INGREDIENT, METHOD FOR USING HERBICIDE, AND METHOD FOR PREPARING AGROCHEMICAL COMPOSITION” (HOKKO CHEMICAL INDUSTRY CO., LTD., priority 2023, dated 2024).

Columns and labels:
Assay type in all cases: in vivo
Monochoria vaginalis [1] = assay: Test Example 5: herbicidal effect test by soil application in paddy rice (low dose); conditions: Pontederia vaginalis, 336 h, 7.5 g per 10 ares, applied immediately after sowing, flooded pots, 14 days after application, read-out: weed inhibition rate
Method in brief: (§1)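 Dose of 7.5 g a.i. per 10 ares, applied by dropper as diluted emulsifiable concentrate to flooded (~3 cm) paddy pots immediately after sowing seeds at 0–1 cm. Kept in a glass greenhouse; duplicate pots rated at 14 days post-application.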

[2] = system: Echinochloa crus-galli var. formosensis; assay: Test Example 2: herbicidal effect test by application during growth period of paddy rice; conditions: Echinochloa crus-galli; 120 g per 10 ares; applied seven days after sowing, flooded pots; 14 days after application; read-out: weed inhibition rate
Method in brief: (§2)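 Herbicidal effect was scored 14 days after treatment, in duplicate per concentration. Weeds sown 0–1 cm deep in puddled, fertilized paddy soil under about 3 cm of standing water received a water-diluted emulsifiable concentrate by dropper 7 days post-sowing, at 120 g a.i. per 10 ares.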

Monochoria vaginalis [3] = assay: as above; conditions: Pontederia vaginalis; 120 g per 10 ares; applied seven days after sowing, flooded pots; 14 days after application; read-out: weed inhibition rate
Method in brief: as §2

Scirpus juncoides [4] = assay: as above; conditions: Schoenoplectiella juncoides; 120 g per 10 ares; applied seven days after sowing, flooded pots; 14 days after application; read-out: weed inhibition rate
Method in brief: as §2

Digitaria ciliaris [5] = assay: Test Example 4: herbicidal effect test by stem and leaf treatment in upland field; conditions: Digitaria ciliaris; 120 g per 10 ares; sprayed seven days after sowing, upland soil; 14 days after application; read-out: weed inhibition rate
Echinochloa crus-galli [6] = assay: Test Example 7: herbicidal effect test by soil application in upland field (low dose); conditions: Echinochloa crus-galli, 7.5 g per 10 ares, sprayed one day after sowing, 14 days after application, read-out: weed inhibition rate
Method in brief: (§3)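 Pre-emergence soil treatment: 7.5 g a.i. per 10 a applied as water-diluted emulsifiable concentrate (100 L/10 a) to soil surface one day post-sowing in alluvial loam. Inhibition (%) assessed at 14 days, duplicate pots per concentration.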

Digitaria ciliaris [7] = assay: as above; conditions: Digitaria ciliaris, 7.5 g per 10 ares, sprayed one day after sowing, 14 days after application, read-out: weed inhibition rate
Method in brief: as §3

[8] = system: Echinochloa crus-galli var. formosensis; assay: Test Example 5: herbicidal effect test by soil application in paddy rice (low dose); conditions: Echinochloa crus-galli, soil, 336 h; 7.5 g per 10 ares; applied immediately after sowing, flooded pots; 14 days after application; read-out: weed inhibition rate
Method in brief: as §1

[9] = system: Echinochloa crus-galli var. formosensis; assay: Test Example 6: herbicidal effect test by application during growth period of paddy rice (low dose); conditions: Echinochloa crus-galli; 7.5 g per 10 ares; applied seven days after sowing, flooded pots; 14 days after application; read-out: weed inhibition rate
Method in brief: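 Formulated compound, diluted in water, was dropped onto flooded pots seven days post-sowing at 7.5 g a.i. per 10 ares. Seeds had been sown 0-1 cm deep in puddled paddy soil under ~3 cm water in a glass greenhouse. Inhibition (%) assessed at 14 days; duplicate pots.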

Echinochloa crus-galli [10] = assay: Test Example 4: herbicidal effect test by stem and leaf treatment in upland field; conditions: Echinochloa crus-galli; 120 g per 10 ares; sprayed seven days after sowing, upland soil; 14 days after application; read-out: weed inhibition rate
Scirpus juncoides [11] = assay: Test Example 5: herbicidal effect test by soil application in paddy rice (low dose); conditions: Schoenoplectiella juncoides, 336 h, 7.5 g per 10 ares, applied immediately after sowing, flooded pots, 14 days after application, read-out: weed inhibition rate
Method in brief: as §1

Cc1ccccc1CO[C@@H]1C[C@]2(C(C)C)O[C@@]1(C)C[C@@H]2F [1-2, (1R,2S,4S,5R)-2-fluoro-1-isopropyl-4-methyl-5-((2-methylbenzyl)oxy)-7-oxabicyclo[2.2.1]heptane]
≥ 80%: inhibition at 75 g/ha (Monochoria vaginalis [1]) | inhibition at 1200 g/ha [2] | inhibition at 1200 g/ha (Monochoria vaginalis [3]) | inhibition at 1200 g/ha (Scirpus juncoides [4]) | inhibition at 1200 g/ha (Digitaria ciliaris [5]) | inhibition at 75 g/ha (Echinochloa crus-galli [6]) | inhibition at 75 g/ha (Digitaria ciliaris [7]) | inhibition at 75 g/ha [8] | inhibition at 75 g/ha [9] | inhibition at 1200 g/ha (Echinochloa crus-galli [10])

CC(C)[C@]12C[C@@H](OCc3ccccc3F)[C@](C)(C[C@@H]1OCc1ccccc1F)O2 [1-603, (1S,2R,4R,5S)-2,5-bis[(2-fluorophenyl)methoxy]-1-methyl-4-isopropyl-7-oxabicyclo[2.2.1]heptane]
≥ 80%: inhibition at 75 g/ha (Monochoria vaginalis [1]) | inhibition at 1200 g/ha [2] | inhibition at 1200 g/ha (Monochoria vaginalis [3]) | inhibition at 1200 g/ha (Scirpus juncoides [4]) | inhibition at 1200 g/ha (Digitaria ciliaris [5]) | inhibition at 75 g/ha [8] | inhibition at 75 g/ha [9] | inhibition at 1200 g/ha (Echinochloa crus-galli [10])

CC(C)[C@]12C[C@@H](OCc3cccc(F)c3)[C@](C)(C[C@@H]1Br)O2 [1-690, (1S,2R,4R,5S)-5-bromo-2-[(3-fluorophenyl)methoxy]-1-methyl-4-isopropyl-7-oxabicyclo[2.2.1]heptane]
≥ 80%: inhibition at 75 g/ha (Monochoria vaginalis [1]) | inhibition at 1200 g/ha [2] | inhibition at 1200 g/ha (Monochoria vaginalis [3]) | inhibition at 1200 g/ha (Scirpus juncoides [4]) | inhibition at 1200 g/ha (Digitaria ciliaris [5]) | inhibition at 75 g/ha (Echinochloa crus-galli [6]) | inhibition at 75 g/ha (Digitaria ciliaris [7]) | inhibition at 75 g/ha [8] | inhibition at 75 g/ha [9] | inhibition at 1200 g/ha (Echinochloa crus-galli [10])

CC(C)[C@]12C[C@@H](OCc3ccccc3Br)[C@](C)(C[C@@H]1Br)O2 [1-694, (1S,2R,4R,5S)-5-bromo-2-[(2-bromophenyl)methoxy]-1-methyl-4-isopropyl-7-oxabicyclo[2.2.1]heptane]
≥ 80%: inhibition at 75 g/ha (Monochoria vaginalis [1]) | inhibition at 1200 g/ha [2] | inhibition at 1200 g/ha (Monochoria vaginalis [3]) | inhibition at 75 g/ha (Echinochloa crus-galli [6]) | inhibition at 75 g/ha (Digitaria ciliaris [7]) | inhibition at 75 g/ha [8] | inhibition at 75 g/ha [9] | inhibition at 1200 g/ha (Echinochloa crus-galli [10])

CC(C)[C@]12C[C@@H](OCc3c(Cl)cccc3Cl)[C@](C)(C[C@@H]1Br)O2 [1-712, (1S,2R,4R,5S)-5-bromo-2-[(2,6-dichlorophenyl)methoxy]-1-methyl-4-isopropyl-7-oxabicyclo[2.2.1]heptane]
≥ 80%: inhibition at 75 g/ha (Monochoria vaginalis [1]) | inhibition at 1200 g/ha [2] | inhibition at 1200 g/ha (Monochoria vaginalis [3]) | inhibition at 1200 g/ha (Scirpus juncoides [4]) | inhibition at 1200 g/ha (Digitaria ciliaris [5]) | inhibition at 75 g/ha (Echinochloa crus-galli [6]) | inhibition at 75 g/ha (Digitaria ciliaris [7]) | inhibition at 75 g/ha [8] | inhibition at 75 g/ha [9] | inhibition at 1200 g/ha (Echinochloa crus-galli [10])

CC(C)[C@]12C[C@@H](OCc3c(F)cccc3Cl)[C@](C)(C[C@@H]1Br)O2 [1-713, (1S,2R,4R,5S)-5-bromo-2-[(2-chloro-6-fluorophenyl)methoxy]-1-methyl-4-isopropyl-7-oxabicyclo[2.2.1]heptane]
≥ 80%: inhibition at 75 g/ha (Monochoria vaginalis [1]) | inhibition at 1200 g/ha [2] | inhibition at 1200 g/ha (Monochoria vaginalis [3]) | inhibition at 1200 g/ha (Scirpus juncoides [4]) | inhibition at 1200 g/ha (Digitaria ciliaris [5]) | inhibition at 75 g/ha (Echinochloa crus-galli [6]) | inhibition at 75 g/ha (Digitaria ciliaris [7]) | inhibition at 75 g/ha [8] | inhibition at 75 g/ha [9] | inhibition at 1200 g/ha (Echinochloa crus-galli [10])

C=CCO[C@H]1C[C@]2(C)O[C@@]1(C(C)C)C[C@H]2OCc1ccccc1F [1-1602, (1S,2R,4R,5S)-2-[(2-fluorophenyl)methoxy]-1-methyl-4-isopropyl-5-prop-2-enoxy-7-oxabicyclo[2.2.1]heptane]
≥ 80%: inhibition at 75 g/ha (Scirpus juncoides [11]) | inhibition at 1200 g/ha [2] | inhibition at 1200 g/ha (Monochoria vaginalis [3]) | inhibition at 1200 g/ha (Scirpus juncoides [4]) | inhibition at 1200 g/ha (Digitaria ciliaris [5]) | inhibition at 75 g/ha (Echinochloa crus-galli [6]) | inhibition at 75 g/ha (Digitaria ciliaris [7]) | inhibition at 75 g/ha [8] | inhibition at 75 g/ha [9] | inhibition at 1200 g/ha (Echinochloa crus-galli [10])

CC(C)[C@]12C[C@@H](OCc3ccccc3Cl)[C@](C)(CC1=O)O2 [2-11, (1R,4S,5R)-5-((2-chlorobenzyl)oxy)-1-isopropyl-4-methyl-7-oxabicyclo[2.2.1]heptan-2-one]
≥ 80%: inhibition at 75 g/ha (Scirpus juncoides [11]) | inhibition at 1200 g/ha [2] | inhibition at 1200 g/ha (Monochoria vaginalis [3]) | inhibition at 1200 g/ha (Scirpus juncoides [4]) | inhibition at 1200 g/ha (Digitaria ciliaris [5]) | inhibition at 75 g/ha (Echinochloa crus-galli [6]) | inhibition at 75 g/ha (Digitaria ciliaris [7]) | inhibition at 75 g/ha [8] | inhibition at 75 g/ha [9] | inhibition at 1200 g/ha (Echinochloa crus-galli [10])

CC(C)[C@]12C[C@@H](OCc3cccc(F)c3F)[C@](C)(CC1=O)O2 [2-14, (1R,4S,5R)-5-((2,3-difluorobenzyl)oxy)-1-isopropyl-4-methyl-7-oxabicyclo[2.2.1]heptan-2-one]
≥ 80%: inhibition at 75 g/ha (Monochoria vaginalis [1]) | inhibition at 75 g/ha (Scirpus juncoides [11]) | inhibition at 1200 g/ha [2] | inhibition at 1200 g/ha (Digitaria ciliaris [5]) | inhibition at 75 g/ha (Echinochloa crus-galli [6]) | inhibition at 75 g/ha (Digitaria ciliaris [7]) | inhibition at 75 g/ha [8] | inhibition at 75 g/ha [9] | inhibition at 1200 g/ha (Echinochloa crus-galli [10])

C=C1C[C@]2(C)O[C@@]1(C(C)C)C[C@H]2OCc1ccccc1C [2-72, (1R,4S,5R)-1-isopropyl-4-methyl-5-((2-methylbenzyl)oxy)-2-methylene-7-oxabicyclo[2.2.1]heptane]
≥ 80%: inhibition at 75 g/ha (Monochoria vaginalis [1]) | inhibition at 1200 g/ha [2] | inhibition at 1200 g/ha (Monochoria vaginalis [3]) | inhibition at 1200 g/ha (Scirpus juncoides [4]) | inhibition at 1200 g/ha (Digitaria ciliaris [5]) | inhibition at 75 g/ha (Echinochloa crus-galli [6]) | inhibition at 75 g/ha (Digitaria ciliaris [7]) | inhibition at 75 g/ha [8] | inhibition at 75 g/ha [9] | inhibition at 1200 g/ha (Echinochloa crus-galli [10])

Cc1ccccc1CO[C@@H]1C[C@]2(C(C)C)O[C@@]1(C)C/C2=N\O [2-191, (1R,4S,5R,E)-1-isopropyl-4-methyl-5-((2-methylbenzyl)oxy)-7-oxabicyclo[2.2.1]heptan-2-one oxime]
≥ 80%: inhibition at 75 g/ha (Monochoria vaginalis [1]) | inhibition at 1200 g/ha [2] | inhibition at 1200 g/ha (Monochoria vaginalis [3]) | inhibition at 1200 g/ha (Scirpus juncoides [4]) | inhibition at 1200 g/ha (Digitaria ciliaris [5]) | inhibition at 75 g/ha (Echinochloa crus-galli [6]) | inhibition at 75 g/ha (Digitaria ciliaris [7]) | inhibition at 75 g/ha [8] | inhibition at 75 g/ha [9] | inhibition at 1200 g/ha (Echinochloa crus-galli [10])

CC(C)[C@]12C[C@@H](OCc3ccccc3F)[C@](C)(C/C1=N\O)O2 [2-197, (1R,4S,5R,E)-5-((2-fluorobenzyl)oxy)-1-isopropyl-4-methyl-7-oxabicyclo[2.2.1]heptan-2-one oxime]
≥ 80%: inhibition at 75 g/ha (Monochoria vaginalis [1]) | inhibition at 1200 g/ha [2] | inhibition at 1200 g/ha (Monochoria vaginalis [3]) | inhibition at 1200 g/ha (Scirpus juncoides [4]) | inhibition at 1200 g/ha (Digitaria ciliaris [5]) | inhibition at 75 g/ha (Echinochloa crus-galli [6]) | inhibition at 75 g/ha (Digitaria ciliaris [7]) | inhibition at 75 g/ha [8] | inhibition at 75 g/ha [9] | inhibition at 1200 g/ha (Echinochloa crus-galli [10])

Cc1cccc(C)c1CO[C@@H]1C[C@@]2(C(C)C)C=C[C@]1(C)O2 [3-3, (1R,4S,5R)-5-[(2,6-dimethylphenyl)methoxy]-4-methyl-1-isopropyl-7-oxabicyclo[2.2.1]hept-2-ene]
≥ 80%: inhibition at 75 g/ha (Monochoria vaginalis [1]) | inhibition at 75 g/ha (Scirpus juncoides [11]) | inhibition at 1200 g/ha [2] | inhibition at 1200 g/ha (Scirpus juncoides [4]) | inhibition at 1200 g/ha (Digitaria ciliaris [5]) | inhibition at 75 g/ha [8] | inhibition at 75 g/ha [9] | inhibition at 1200 g/ha (Echinochloa crus-galli [10])
